Results as given in article PMC4979471 (Cell Death Discovery, 2015).
Like-named read-outs stand apart in the source and are kept apart here.

Key:
Experiment in all cases: Kinase selectivity, P33-radiolabeled assay
Format in all cases: biochemical
Conditions in all cases: 10 μM ATP
RSK2 = target: T1, RSK2 (Homo sapiens, UniProt P51812)
T1 construct: purchased Reaction Biology Corp
Procedure, shortened: (§1)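 Each enzyme was exposed to 10 μM compound, with duplicate measurements, in reactions containing 10 μM ATP. Numbers are remaining activity as a percent of the vehicle (DMSO) signal.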

ALK1/ACVRL1 = target: T2, ALK1/ACVRL1 (Homo sapiens, UniProt P37023)
T2 construct: purchased Reaction Biology Corp
T2 sequence (P37023 22-503): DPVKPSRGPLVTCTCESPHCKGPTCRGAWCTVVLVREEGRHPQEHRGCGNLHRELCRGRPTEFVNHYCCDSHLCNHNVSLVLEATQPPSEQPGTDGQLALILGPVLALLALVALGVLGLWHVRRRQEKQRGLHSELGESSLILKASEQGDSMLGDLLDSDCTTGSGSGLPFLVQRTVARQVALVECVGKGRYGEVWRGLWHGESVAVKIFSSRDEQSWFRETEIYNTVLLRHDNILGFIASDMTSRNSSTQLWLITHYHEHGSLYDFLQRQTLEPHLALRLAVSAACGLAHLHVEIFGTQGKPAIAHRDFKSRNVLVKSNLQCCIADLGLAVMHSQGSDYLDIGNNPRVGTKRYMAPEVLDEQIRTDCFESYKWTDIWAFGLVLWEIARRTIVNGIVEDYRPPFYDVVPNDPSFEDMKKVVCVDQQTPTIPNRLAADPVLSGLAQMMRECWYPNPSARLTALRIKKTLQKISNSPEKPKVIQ
Procedure, shortened: as §1

GRK7 = target: T3, GRK7 (Homo sapiens, UniProt Q8WTQ7)
T3 construct: purchased Reaction Biology Corp
T3 sequence (Q8WTQ7 1-553): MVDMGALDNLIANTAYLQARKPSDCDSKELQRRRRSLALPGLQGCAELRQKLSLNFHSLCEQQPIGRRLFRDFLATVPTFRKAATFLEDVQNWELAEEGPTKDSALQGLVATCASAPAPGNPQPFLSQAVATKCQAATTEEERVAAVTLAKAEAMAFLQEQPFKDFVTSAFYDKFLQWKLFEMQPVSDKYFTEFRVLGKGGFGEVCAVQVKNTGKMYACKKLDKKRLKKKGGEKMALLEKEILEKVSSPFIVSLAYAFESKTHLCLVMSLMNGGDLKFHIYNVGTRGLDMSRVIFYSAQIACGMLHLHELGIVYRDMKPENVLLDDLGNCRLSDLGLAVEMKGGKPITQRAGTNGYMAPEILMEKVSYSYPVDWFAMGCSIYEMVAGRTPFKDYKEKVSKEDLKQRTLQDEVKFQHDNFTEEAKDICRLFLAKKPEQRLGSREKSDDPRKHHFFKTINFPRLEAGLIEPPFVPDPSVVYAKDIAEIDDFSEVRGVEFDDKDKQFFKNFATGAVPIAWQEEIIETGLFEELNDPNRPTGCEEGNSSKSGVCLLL
Procedure, shortened: as §1

PBK/TOPK = target: T4, PBK/TOPK (Homo sapiens, UniProt Q96KB5)
T4 construct: purchased Reaction Biology Corp
T4 sequence (Q96KB5 1-322): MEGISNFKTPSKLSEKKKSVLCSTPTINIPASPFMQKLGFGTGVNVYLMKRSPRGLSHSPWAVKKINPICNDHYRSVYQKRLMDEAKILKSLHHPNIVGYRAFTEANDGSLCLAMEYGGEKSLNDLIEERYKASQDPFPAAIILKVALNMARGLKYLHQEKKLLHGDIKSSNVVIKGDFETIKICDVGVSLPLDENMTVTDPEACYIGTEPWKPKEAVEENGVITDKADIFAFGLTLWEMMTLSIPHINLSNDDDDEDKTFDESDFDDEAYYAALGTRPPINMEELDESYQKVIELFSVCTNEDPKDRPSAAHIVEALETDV
Procedure, shortened: as §1

TAK1 = target: T5, TAK1 (Homo sapiens, UniProt O43318)
T5 construct: purchased Reaction Biology Corp
T5 sequence (O43318 1-303 limits assumed): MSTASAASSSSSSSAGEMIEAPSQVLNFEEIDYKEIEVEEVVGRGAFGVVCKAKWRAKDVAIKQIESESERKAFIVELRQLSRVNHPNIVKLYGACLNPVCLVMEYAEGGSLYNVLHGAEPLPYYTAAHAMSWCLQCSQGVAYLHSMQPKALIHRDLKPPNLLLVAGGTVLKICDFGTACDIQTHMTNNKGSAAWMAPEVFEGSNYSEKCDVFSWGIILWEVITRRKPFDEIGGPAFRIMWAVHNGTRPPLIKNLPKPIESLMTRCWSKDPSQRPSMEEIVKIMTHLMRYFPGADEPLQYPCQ
T5 sequence (Q15750 437-504 partner limits assumed): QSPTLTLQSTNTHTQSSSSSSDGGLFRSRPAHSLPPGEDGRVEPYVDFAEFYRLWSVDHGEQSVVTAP
Procedure, shortened: as §1

PKCeta = target: T6, PKCeta (Homo sapiens, UniProt P24723)
T6 construct: purchased Reaction Biology Corp
T6 sequence (P24723 whole entry): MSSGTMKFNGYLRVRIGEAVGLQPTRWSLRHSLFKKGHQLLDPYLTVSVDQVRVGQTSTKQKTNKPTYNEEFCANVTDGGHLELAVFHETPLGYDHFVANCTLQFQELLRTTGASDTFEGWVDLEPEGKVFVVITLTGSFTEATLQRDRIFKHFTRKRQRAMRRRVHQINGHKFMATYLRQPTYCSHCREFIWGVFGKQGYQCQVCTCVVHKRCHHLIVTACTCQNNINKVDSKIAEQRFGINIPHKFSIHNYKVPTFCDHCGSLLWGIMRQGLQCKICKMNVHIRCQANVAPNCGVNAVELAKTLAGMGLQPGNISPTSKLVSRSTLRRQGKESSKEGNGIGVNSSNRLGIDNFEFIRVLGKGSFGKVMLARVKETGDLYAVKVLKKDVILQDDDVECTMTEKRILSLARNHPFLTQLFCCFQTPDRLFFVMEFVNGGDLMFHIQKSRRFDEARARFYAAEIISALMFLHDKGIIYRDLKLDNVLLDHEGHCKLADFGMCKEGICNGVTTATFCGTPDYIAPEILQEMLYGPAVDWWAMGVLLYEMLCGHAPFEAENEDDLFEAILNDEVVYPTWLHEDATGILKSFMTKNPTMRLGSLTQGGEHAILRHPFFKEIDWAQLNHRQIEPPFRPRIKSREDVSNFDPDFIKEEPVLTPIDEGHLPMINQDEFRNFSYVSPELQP
Procedure, shortened: as §1

PKN2/PRK2 = target: T7, PKN2/PRK2 (Homo sapiens, UniProt Q16513)
T7 construct: purchased Reaction Biology Corp
T7 sequence (Q16513 whole entry): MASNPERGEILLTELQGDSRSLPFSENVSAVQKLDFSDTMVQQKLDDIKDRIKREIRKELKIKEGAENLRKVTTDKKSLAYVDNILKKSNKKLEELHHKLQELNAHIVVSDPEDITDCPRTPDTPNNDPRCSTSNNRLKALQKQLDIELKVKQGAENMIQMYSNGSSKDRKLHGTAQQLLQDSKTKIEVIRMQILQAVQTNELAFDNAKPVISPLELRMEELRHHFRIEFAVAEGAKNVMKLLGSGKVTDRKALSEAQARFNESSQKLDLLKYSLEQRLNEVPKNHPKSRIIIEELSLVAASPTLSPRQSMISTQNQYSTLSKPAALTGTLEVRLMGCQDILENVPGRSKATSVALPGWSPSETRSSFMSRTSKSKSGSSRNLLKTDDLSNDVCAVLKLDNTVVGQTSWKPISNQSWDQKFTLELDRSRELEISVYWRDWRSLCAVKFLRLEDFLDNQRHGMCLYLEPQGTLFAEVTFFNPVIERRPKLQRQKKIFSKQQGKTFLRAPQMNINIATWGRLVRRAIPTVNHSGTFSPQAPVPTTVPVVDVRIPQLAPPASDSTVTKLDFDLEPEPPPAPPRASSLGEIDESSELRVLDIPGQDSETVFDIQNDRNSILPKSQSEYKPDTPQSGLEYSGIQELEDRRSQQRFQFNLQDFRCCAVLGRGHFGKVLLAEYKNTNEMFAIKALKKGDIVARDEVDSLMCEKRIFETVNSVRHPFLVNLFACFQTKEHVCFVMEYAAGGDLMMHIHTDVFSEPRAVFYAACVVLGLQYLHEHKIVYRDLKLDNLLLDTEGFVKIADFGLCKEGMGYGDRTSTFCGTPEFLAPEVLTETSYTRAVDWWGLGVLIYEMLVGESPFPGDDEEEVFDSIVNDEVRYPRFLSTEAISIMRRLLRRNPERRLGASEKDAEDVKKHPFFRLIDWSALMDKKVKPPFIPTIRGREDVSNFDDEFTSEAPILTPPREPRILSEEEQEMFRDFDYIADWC
Procedure, shortened: as §1

c-MER = target: T8, c-MER (Homo sapiens, UniProt Q12866)
T8 construct: purchased Reaction Biology Corp
T8 sequence (Q12866 21-999): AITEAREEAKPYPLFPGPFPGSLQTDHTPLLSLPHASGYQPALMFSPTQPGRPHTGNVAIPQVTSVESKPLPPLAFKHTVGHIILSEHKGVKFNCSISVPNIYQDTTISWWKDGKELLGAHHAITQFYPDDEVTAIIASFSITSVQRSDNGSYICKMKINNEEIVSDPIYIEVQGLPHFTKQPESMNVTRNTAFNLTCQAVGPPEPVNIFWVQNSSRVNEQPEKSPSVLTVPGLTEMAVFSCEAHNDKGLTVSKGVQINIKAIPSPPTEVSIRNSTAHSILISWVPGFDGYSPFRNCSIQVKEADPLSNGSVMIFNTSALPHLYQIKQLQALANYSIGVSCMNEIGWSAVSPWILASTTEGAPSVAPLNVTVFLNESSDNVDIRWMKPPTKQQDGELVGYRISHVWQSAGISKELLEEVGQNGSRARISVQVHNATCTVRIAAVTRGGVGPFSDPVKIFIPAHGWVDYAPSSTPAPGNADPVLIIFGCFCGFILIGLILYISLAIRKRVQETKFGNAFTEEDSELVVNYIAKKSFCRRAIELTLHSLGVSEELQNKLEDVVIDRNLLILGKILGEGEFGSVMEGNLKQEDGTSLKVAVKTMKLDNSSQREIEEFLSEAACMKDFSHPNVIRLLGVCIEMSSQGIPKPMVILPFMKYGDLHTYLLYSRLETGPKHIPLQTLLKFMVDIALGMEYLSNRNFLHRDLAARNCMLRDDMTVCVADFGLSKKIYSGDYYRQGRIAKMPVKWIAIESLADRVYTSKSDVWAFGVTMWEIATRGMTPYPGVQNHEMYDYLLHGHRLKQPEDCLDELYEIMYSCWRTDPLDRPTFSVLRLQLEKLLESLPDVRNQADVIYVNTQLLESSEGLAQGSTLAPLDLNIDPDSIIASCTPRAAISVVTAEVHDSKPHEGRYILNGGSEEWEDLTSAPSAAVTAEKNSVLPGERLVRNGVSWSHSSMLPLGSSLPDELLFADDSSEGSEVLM
Procedure, shortened: as §1

[1] = read-out: % Enzyme Activity (relative to DMSO controls) AVG
[2] = read-out: % Enzyme Activity (relative to DMSO controls) Data 1
[3] = read-out: % Enzyme Activity (relative to DMSO controls) Data 2

T1 sequence (P51812 whole entry): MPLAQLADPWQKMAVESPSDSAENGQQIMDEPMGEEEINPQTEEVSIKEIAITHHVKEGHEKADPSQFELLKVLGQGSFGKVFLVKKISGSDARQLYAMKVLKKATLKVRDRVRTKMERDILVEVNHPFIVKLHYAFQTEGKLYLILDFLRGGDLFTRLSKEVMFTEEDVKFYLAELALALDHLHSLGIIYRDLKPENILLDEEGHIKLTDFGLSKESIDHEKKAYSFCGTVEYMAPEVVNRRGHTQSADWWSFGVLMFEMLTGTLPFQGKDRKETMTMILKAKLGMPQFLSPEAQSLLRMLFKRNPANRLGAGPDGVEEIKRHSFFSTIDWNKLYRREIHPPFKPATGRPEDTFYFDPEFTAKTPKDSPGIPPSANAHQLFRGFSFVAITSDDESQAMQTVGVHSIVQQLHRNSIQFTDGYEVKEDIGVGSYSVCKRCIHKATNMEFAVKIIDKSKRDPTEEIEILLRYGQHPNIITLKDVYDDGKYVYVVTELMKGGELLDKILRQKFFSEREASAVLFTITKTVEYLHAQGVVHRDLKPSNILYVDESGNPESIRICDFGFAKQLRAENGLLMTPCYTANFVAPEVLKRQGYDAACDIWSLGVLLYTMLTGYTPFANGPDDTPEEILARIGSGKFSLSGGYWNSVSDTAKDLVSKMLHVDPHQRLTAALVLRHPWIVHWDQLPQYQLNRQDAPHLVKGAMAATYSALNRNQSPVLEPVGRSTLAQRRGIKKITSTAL

With CC(C)(C)C(=O)N1N=CC[C@H]1c1ccccc1 [GSK′963] the remaining activity at 10 µM (RSK2; [1]) was 106%, the remaining activity at 10 µM (RSK2; [2]) was 107% and the remaining activity at 10 µM (RSK2; [3]) was 106%. It also gave a remaining activity at 10 µM (ALK1/ACVRL1; [1]) of 97.7%, a remaining activity at 10 µM (ALK1/ACVRL1; [2]) of 104% and a remaining activity at 10 µM (ALK1/ACVRL1; [3]) of 91.2%. It also gave a remaining activity at 10 µM (GRK7; [1]) of 90.3%, a remaining activity at 10 µM (GRK7; [2]) of 88.3% and a remaining activity at 10 µM (GRK7; [3]) of 92.4%. For the same compound, the remaining activity at 10 µM (PBK/TOPK; [1]) was 104%, the remaining activity at 10 µM (PBK/TOPK; [2]) was 103% and the remaining activity at 10 µM (PBK/TOPK; [3]) was 105%. It also gave a remaining activity at 10 µM (TAK1; [1]) of 98.8%, a remaining activity at 10 µM (TAK1; [2]) of 99.7% and a remaining activity at 10 µM (TAK1; [3]) of 97.9%. The remaining activity at 10 µM (PKCeta; [1]) was 113%, the remaining activity at 10 µM (PKCeta; [2]) was 112% and the remaining activity at 10 µM (PKCeta; [3]) was 114%. For the same compound, the remaining activity at 10 µM (PKN2/PRK2; [1]) was 93.3%, the remaining activity at 10 µM (PKN2/PRK2; [2]) was 97.5% and the remaining activity at 10 µM (PKN2/PRK2; [3]) was 89.2%. For the same compound, the remaining activity at 10 µM (c-MER; [1]) was 94.8%, the remaining activity at 10 µM (c-MER; [2]) was 94.5% and the remaining activity at 10 µM (c-MER; [3]) was 95.1%.
